In paper PMC11579929, “Proline-Modified RWn Peptides: Enhanced Antifungal Efficacy and Synergy with Conventional Antibiotics for Combating Resistant Fungal Infections” (ACS Omega, 2024):
In brackets after ≈: the same amount, converted by molar mass. Like-named read-outs stand apart in the source and are kept apart here. Where no end group is shown, it is not given here.

Assays:
Cytotoxicity assay = assay type: cell-based; settings: human, HEK293 cells
Description: (§1) The antifungal activities were evaluated by determining the minimum inhibitory concentration (MIC) against C. albicans [ATCC 90028] and C. neoformans [ATCC 208821] that inhibits 99% fungal growth. Cytotoxicity and hemolytic activities were assessed against human embryonic kidney (HEK293) cells and human red blood cells, respectively. The antimicrobial screening was performed by The Community for Antimicrobial Drug Discovery (CO-ADD).[31] Cytotoxicity assays were performed on active compounds to assess their selectivity toward microbial cells. The protocol for the cytotoxicity assay is described in the Supporting Information.[28]

human red blood cells = experiment: Hemolytic activity; assay type: cell-based; settings: for Hemolytic Toxicity (<32 mg/mL): yes/no below as printed
Description: as §1, with “(CO-ADD).[31]” for “(CO-ADD).[31] Cytotoxicity assays were performed on active compounds to assess their selectivity toward microbial cells. The protocol for the cytotoxicity assay is described in the Supporting Information.[28]”

C. albicans [ATCC 90028] = experiment: microbe, parasite or virus in culture; assay type: cell-based, Candida albicans; settings: for MIC: Candida albicans
[1] = test system: C. neoformans [ATCC 208821]; experiment: microbe, parasite or virus in culture; assay type: cell-based, Cryptococcus neoformans; settings: for MIC: Cryptococcus neoformans
HEK293 and RBC = experiment: Toxicity (HEK293 and RBC), stated jointly; assay type: cell-based, human
Description: as §1

C. albicans MIC (C. albicans [ATCC 90028]; ATCC 90028, 3 h) [µg/mL]	Compound	CC50 (Cytotoxicity assay) [µg/mL]	Hemolytic Activity (human red blood cells; Table 2, human red blood cells) [µg/mL]	Hemolytic Toxicity (<32 mg/mL) (human red blood cells)	Hemolytic Activity (human red blood cells; Table 3, unit not given)	further results
8	N=C(N)NCCC[C@H](NC(=O)[C@H](Cc1c[nH]c2ccccc12)NC(=O)[C@H](CCCNC(=N)N)NC(=O)[C@H](Cc1c[nH]c2ccccc12)NC(=O)[C@H](CCCNC(=N)N)NC(=O)[C@H](Cc1c[nH]c2ccccc12)NC(=O)[C@H](CCCNC(=N)N)NC(=O)[C@H](Cc1c[nH]c2ccccc12)NC(=O)[C@H](CCCNC(=N)N)NC(=O)[C@H](Cc1c[nH]c2ccccc12)NC(=O)[C@@H](N)CCCNC(=N)N)C(=O)N[C@@H](Cc1c[nH]c2ccccc12)C(N)=O [RW6, (RW)6-NH2]	> 32	≤0.25	Yes		
32	RWRWRWRWRWRWRWRW-NH2 [RW8, (RW)8-NH2]	> 32	0.452	Yes		C. neoformans MIC ([1]; ATCC 208821, 3 h): 0.5 µg/mL

The remaining lines, values behind:

Compound	C. albicans MIC (C. albicans [ATCC 90028]; ATCC 90028, 3 h) [µg/mL]	CC50 (Cytotoxicity assay) [µg/mL]	Hemolytic Activity (human red blood cells; Table 2, human red blood cells) [µg/mL]	Hemolytic Toxicity (<32 mg/mL) (human red blood cells)	Hemolytic Activity (human red blood cells; Table 3, unit not given)	further results
RWRWRWRW-NH2 [RW4, (RW)4-NH2]		> 32	>32	No		
CC1(C)S[C@@H]2[C@H](NC(=O)[C@H](N)c3ccccc3)C(=O)N2[C@H]1C(=O)O [AMP, ampicillin, reference compound]						MIC (C. albicans [ATCC 90028]; ATCC90028, antibiotic alone or 4.75 mg antibiotic mixed with 0.25 mg of peptide, read-out: C. albicans MIC): > 32 µg/mL; MIC ([1]; ATCC208821, antibiotic alone or 4.75 mg antibiotic mixed with 0.25 mg of peptide, read-out: C. neoformans MIC): > 32 µg/mL
RWRWPRWRW-NH2 [RW4P]	>32	> 32			>32	C. neoformans MIC ([1]; ATCC 208821, 3 h): ≤0.25 µg/mL
RWRWRWPRWRWRW-NH2 [RW6P]		> 32			>32	Toxicity in HEK293 or red blood cells (in words) (HEK293 and RBC): without observable toxicity
RWRWPRWRWPRWRW-NH2 [RW6–2P]		> 32			>32	Toxicity in HEK293 or red blood cells (in words) (HEK293 and RBC): without any detectable toxicity
CN[C@H](CC(C)C)C(=O)N[C@H]1C(=O)N[C@@H](CC(N)=O)C(=O)N[C@H]2C(=O)N[C@H]3C(=O)N[C@H](C(=O)N[C@H](C(=O)O)c4cc(O)cc(O)c4-c4cc3ccc4O)[C@H](O)c3ccc(c(Cl)c3)Oc3cc2cc(c3O[C@@H]2O[C@H](CO)[C@@H](O)[C@H](O)[C@H]2O[C@H]2C[C@](C)(N)[C@H](O)[C@H](C)O2)Oc2ccc(cc2Cl)[C@H]1O [VAN, vancomycin, reference compound]						MIC (C. albicans [ATCC 90028]; ATCC90028, read-out: C. albicans MIC): > 32 µg/mL; MIC ([1]; ATCC208821, read-out: C. neoformans MIC): > 32 µg/mL
CC[C@H](C)[C@H](N)C(=O)N[C@@H](CC(C)C)C(=O)N1CCC[C@H]1C(=O)N[C@@H](Cc1c[nH]c2ccccc12)C(=O)N[C@@H](CCCCN)C(=O)N[C@@H](Cc1c[nH]c2ccccc12)C(=O)N1CCC[C@H]1C(=O)N[C@@H](Cc1c[nH]c2ccccc12)C(=O)N[C@@H](Cc1c[nH]c2ccccc12)C(=O)N1CCC[C@H]1C(=O)N[C@@H](Cc1c[nH]c2ccccc12)C(=O)N[C@@H](CCCNC(=N)N)C(=O)N[C@@H](CCCNC(=N)N)C(N)=O [Indolicidin, reference compound]			>32	No		CC50 (Cytotoxicity assay; Table 2, read-out: HEK293 Toxicity): > 32 µg/mL; C. albicans MIC (C. albicans [ATCC 90028]; ATCC 90028, concentration that inhibits 99% fungal growth, peptide alone): >32 µg/mL; C. neoformans MIC ([1]; ATCC 208821, concentration that inhibits 99% fungal growth, peptide alone): >32 µg/mL
OC(Cn1cncn1)(Cn1cncn1)c1ccc(F)cc1F [Fluconazole, reference compound]						MIC (C. albicans [ATCC 90028]; ATCC90028, BMD method, YNB, 384 NBS plates, average of ≥ 6 independent biological replicates, antifungal standard, read-out: MIC Candida albicans ATCC 90028): 0.125 µg/mL (≈ 0.408 µM); MIC ([1]; ATCC208821, BMD method, YNB, 384 NBS plates, average of ≥ 6 independent biological replicates, antifungal standard, read-out: MIC Cryptococcus neoformans H99 ATCC 208821): 8 µg/mL (≈ 26.1 µM)
RWRWRWRWPRWRWRWRW-NH2 [RW8P]	>32	> 32			>32	C. neoformans MIC ([1]; ATCC 208821, 3 h): ≤0.25 µg/mL
